Measurements: patent US4012576A, “Antibiotic complex Bu 2183” (priority 1975, dated 1977)
Converted amounts (≈) assume the structure as drawn. Where two headings read alike, the source gives them in different places.

Assays:
Assay type in all cases: cell-based
E. coli A20107 = experiment: MIC, two-fold agar dilution on Nutrient Agar; conditions: Escherichia coli, read-out: MIC
Procedure: (§1) The minimum inhibitory concentrations (MIC) of Bu-2183 A and B were determined against a wide variety of bacteria by the two-fold agar dilution method on Nutrient Agar plates. The inocula-replicating device of Steers et al. was used. Inoculum size was adjusted to be 10^4 dilution of overnight culture of the test organisms in Heart Infusion Broth (Difco). The results are shown in Table 6 along with those of kanamycin which was comparatively tested as a reference antibiotic.

E. coli ML 1630 = experiment: MIC, two-fold agar dilution on Nutrient Agar; conditions: Escherichia coli, read-out: MIC
Procedure: as §1

E. coli PO 1495 = experiment: MIC, two-fold agar dilution on Nutrient Agar
Procedure: as §1

Ent. cloacae A20364 = experiment: MIC, two-fold agar dilution on Nutrient Agar
Procedure: as §1

Ent. cloacae A21006 = experiment: MIC, two-fold agar dilution on Nutrient Agar
Procedure: as §1

Pr. mirabilis A9554 = experiment: MIC, two-fold agar dilution on Nutrient Agar; conditions: Proteus mirabilis, read-out: MIC
Procedure: as §1

Pr. morganii A20031 = experiment: MIC, two-fold agar dilution on Nutrient Agar
Procedure: as §1

Pr. vulgaris A9436 = experiment: MIC, two-fold agar dilution on Nutrient Agar; conditions: Proteus vulgaris, read-out: MIC
Procedure: as §1

Ps. aeruginosa A20896 = experiment: MIC, two-fold agar dilution on Nutrient Agar; conditions: Pseudomonas aeruginosa, read-out: MIC
Procedure: as §1

Ps. aeruginosa A9930 = experiment: MIC, two-fold agar dilution on Nutrient Agar
Procedure: as §1

S. aureus A20239 = experiment: MIC, two-fold agar dilution on Nutrient Agar; conditions: Staphylococcus aureus, read-out: MIC
Procedure: as §1

S. aureus D137 = experiment: MIC, two-fold agar dilution on Nutrient Agar; conditions: Staphylococcus aureus, read-out: MIC
Procedure: as §1

S. aureus Smith [1] = experiment: MIC, two-fold agar dilution on Nutrient Agar; conditions: Staphylococcus aureus, read-out: MIC
Procedure: as §1

Ser. marcescens A20019 = experiment: MIC, two-fold agar dilution on Nutrient Agar
Procedure: as §1

B. subtilis PCI 219 = experiment: Effect of media pH on MIC, two-fold agar dilution; conditions: Bacillus subtilis, PCI219, Table 8, Nutrient Agar
From the text: (§2) Effect of media pH on the MIC of Bu-2183 A was studied by two-fold agar dilution method using Nutrient Agar Medium at pH 6.0, 7.0, 8.0 and 9.0.

E. coli NIHJ = experiment: Effect of media pH on MIC, two-fold agar dilution; conditions: Escherichia coli, Table 8, Nutrient Agar
From the text: as §2

K. pneumoniae D 11 = experiment: Effect of media pH on MIC, two-fold agar dilution; conditions: Klebsiella pneumoniae, D11, Table 8, Nutrient Agar
From the text: as §2

Ps. aeruginosa D 15 = experiment: Effect of media pH on MIC, two-fold agar dilution; conditions: Pseudomonas aeruginosa, D15, Table 8, Nutrient Agar
From the text: as §2

S. aureus Smith [2] = experiment: Effect of media pH on MIC, two-fold agar dilution; conditions: Staphylococcus aureus, Table 8, Nutrient Agar
From the text: as §2

[3] = system: E. coli, K. pneumoniae, Ps. aeruginosa, S. aureus, B. subtilis; experiment: Effect of media pH on MIC (overall); conditions: Nutrient Agar, pH 6.0-9.0
From the text: as §2

[4] = Escherichia coli, PO1495, Table 6, Ec-2, read-out: MIC
[5] = Enterobacter cloacae, A20364, Table 6, El-2, read-out: MIC
[6] = Enterobacter cloacae, A21006, Table 6, El-12, read-out: MIC
[7] = Morganella morganii, A20031, Table 6, Pg-2, read-out: MIC
[8] = Pseudomonas aeruginosa, A9930, Table 6, Pa-3, read-out: MIC
[9] = Serratia marcescens, A20019, Table 6, Sm-1, read-out: MIC

`CCC(=O)NC1C(CO)OC(OC(C(O)CN)C(N)C(O)CO)C(O)C1O` (stereo not drawn) [Bu-2183 A] was tested, and the MIC (E. coli A20107; A20107, Table 6, Ec-49) was 12.5 µg/mL (≈ 31.5 µM), the MIC (E. coli A20107; A20107, Table 7, Ec-49) was 25 µg/mL (≈ 62.9 µM) and the MIC (E. coli ML 1630; ML1630, Table 6, Ec-5) was 12.5 µg/mL (≈ 31.5 µM). For the same compound, the MIC (E. coli ML 1630; ML1630, Table 7, Ec-5) was 25 µg/mL (≈ 62.9 µM), the MIC (E. coli PO 1495; [4]) was 25 µg/mL (≈ 62.9 µM) and the MIC (E. coli PO 1495; Table 7, Ec-2) was 25 µg/mL (≈ 62.9 µM). It also gave an MIC (Ent. cloacae A20364; [5]) of 25 µg/mL (≈ 62.9 µM), an MIC (Ent. cloacae A20364; Table 7, El-2) of 25 µg/mL (≈ 62.9 µM) and an MIC (Ent. cloacae A21006; [6]) of 25 µg/mL (≈ 62.9 µM). For the same compound, the MIC (Ent. cloacae A21006; Table 7, El-12) was 25 µg/mL (≈ 62.9 µM), the MIC (Pr. mirabilis A9554; A9554, Table 6, Pm-1) was 12.5 µg/mL (≈ 31.5 µM) and the MIC (Pr. mirabilis A9554; A9554, Table 7, Pm-1) was 25 µg/mL (≈ 62.9 µM). It also gave an MIC (Pr. morganii A20031; [7]) of 25 µg/mL (≈ 62.9 µM), an MIC (Pr. morganii A20031; Table 7, Pg-2) of 25 µg/mL (≈ 62.9 µM) and an MIC (Pr. vulgaris A9436; A9436, Table 6, Pv-1) of 12.5 µg/mL (≈ 31.5 µM). The MIC (Pr. vulgaris A9436; A9436, Table 7, Pv-1) was 25 µg/mL (≈ 62.9 µM), the MIC (Ps. aeruginosa A20896; A20896, Table 6, Pa-24) was 25 µg/mL (≈ 62.9 µM) and the MIC (Ps. aeruginosa A20896; A20896, Table 7, Pa-24) was 50 µg/mL (≈ 126 µM). It also gave an MIC (Ps. aeruginosa A9930; [8]) of 12.5 µg/mL (≈ 31.5 µM), an MIC (Ps. aeruginosa A9930; Table 7, Pa-3) of 12.5 µg/mL (≈ 31.5 µM) and an MIC (S. aureus A20239; A20239, Table 6, Sa-10) of 25 µg/mL (≈ 62.9 µM). It also gave an MIC (S. aureus A20239; A20239, Table 7, Sa-10) of 50 µg/mL (≈ 126 µM), an MIC (S. aureus D137; D137, Table 6, Sa-9) of 100 µg/mL (≈ 252 µM) and an MIC (S. aureus D137; D137, Table 7, Sa-9) of 50 µg/mL (≈ 126 µM). For the same compound, the MIC (S. aureus Smith [1]; Table 6, Sa-2) was 12.5 µg/mL (≈ 31.5 µM), the MIC (S. aureus Smith [1]; Table 7, Sa-2) was 25 µg/mL (≈ 62.9 µM) and the MIC (Ser. marcescens A20019; [9]) was > 100 µg/mL. For the same compound, the MIC (Ser. marcescens A20019; Table 7, Sm-1) was > 100 µg/mL, the MIC (B. subtilis PCI 219; pH 6) was 50 µg/mL (≈ 126 µM) and the MIC (B. subtilis PCI 219; pH 7) was 6.3 µg/mL (≈ 15.9 µM). For the same compound, the MIC (B. subtilis PCI 219; pH 8) was 6.3 µg/mL (≈ 15.9 µM), the MIC (B. subtilis PCI 219; pH 9) was 6.3 µg/mL (≈ 15.9 µM) and the MIC (E. coli NIHJ; pH 6) was > 50 µg/mL. For the same compound, the MIC (E. coli NIHJ; pH 7) was 50 µg/mL (≈ 126 µM), the MIC (E. coli NIHJ; pH 8) was 25 µg/mL (≈ 62.9 µM) and the MIC (E. coli NIHJ; pH 9) was 12.5 µg/mL (≈ 31.5 µM). It also gave an MIC (K. pneumoniae D 11; pH 6) of 12.5 µg/mL (≈ 31.5 µM), an MIC (K. pneumoniae D 11; pH 7) of 12.5 µg/mL (≈ 31.5 µM) and an MIC (K. pneumoniae D 11; pH 8) of 12.5 µg/mL (≈ 31.5 µM). The MIC (K. pneumoniae D 11; pH 9) was 3.1 µg/mL (≈ 7.8 µM), the MIC (Ps. aeruginosa D 15; pH 6) was > 50 µg/mL and the MIC (Ps. aeruginosa D 15; pH 7) was 50 µg/mL (≈ 126 µM). For the same compound, the MIC (Ps. aeruginosa D 15; pH 8) was 25 µg/mL (≈ 62.9 µM), the MIC (Ps. aeruginosa D 15; pH 9) was 12.5 µg/mL (≈ 31.5 µM) and the MIC (S. aureus Smith [2]; pH 6) was > 50 µg/mL. The MIC (S. aureus Smith [2]; pH 7) was 50 µg/mL (≈ 126 µM), the MIC (S. aureus Smith [2]; pH 8) was 50 µg/mL (≈ 126 µM) and the MIC (S. aureus Smith [2]; pH 9) was 50 µg/mL (≈ 126 µM). For the same compound, the “effect of media pH on activity” value [3] was “increased at alkaline pH and decreased at acidic pH”.
For `CC(=O)NC1C(CO)OC(OC(C(O)CN)C(N)C(O)CO)C(O)C1O` (stereo not drawn) [Bu-2183 B], the MIC (E. coli A20107; A20107, Table 6, Ec-49) was 50 µg/mL (≈ 130 µM), the MIC (E. coli ML 1630; ML1630, Table 6, Ec-5) was 50 µg/mL (≈ 130 µM) and the MIC (E. coli PO 1495; [4]) was 50 µg/mL (≈ 130 µM). It also gave an MIC (Ent. cloacae A20364; [5]) of 50 µg/mL (≈ 130 µM), an MIC (Ent. cloacae A21006; [6]) of 100 µg/mL (≈ 261 µM) and an MIC (Pr. mirabilis A9554; A9554, Table 6, Pm-1) of 25 µg/mL (≈ 65.2 µM). For the same compound, the MIC (Pr. morganii A20031; [7]) was 50 µg/mL (≈ 130 µM), the MIC (Pr. vulgaris A9436; A9436, Table 6, Pv-1) was 50 µg/mL (≈ 130 µM) and the MIC (Ps. aeruginosa A20896; A20896, Table 6, Pa-24) was 100 µg/mL (≈ 261 µM). For the same compound, the MIC (Ps. aeruginosa A9930; [8]) was 25 µg/mL (≈ 65.2 µM), the MIC (S. aureus A20239; A20239, Table 6, Sa-10) was 100 µg/mL (≈ 261 µM) and the MIC (S. aureus D137; D137, Table 6, Sa-9) was > 100 µg/mL. For the same compound, the MIC (S. aureus Smith [1]; Table 6, Sa-2) was 50 µg/mL (≈ 130 µM) and the MIC (Ser. marcescens A20019; [9]) was > 100 µg/mL.
